Measured values published in patent US7932253B2, “Immunomodulating oxopyrrazolocinnolines as CD80 inhibitors” (MediGene AG, priority 2004, dated 2011).

Experiments:
[1] = target: T1, Biotinylated human CD80 (hCD80-BT) (Homo sapiens, UniProt P33681); experiment: BIAcore biomolecular interaction assay; format: binding; conditions: hCD80-BT immobilised on streptavidin-coated sensor chip; compound 1000 nM-0.05 nM
T1 construct: biotin (biotinylation)
T1 sequence (P33681 35-242 limits assumed): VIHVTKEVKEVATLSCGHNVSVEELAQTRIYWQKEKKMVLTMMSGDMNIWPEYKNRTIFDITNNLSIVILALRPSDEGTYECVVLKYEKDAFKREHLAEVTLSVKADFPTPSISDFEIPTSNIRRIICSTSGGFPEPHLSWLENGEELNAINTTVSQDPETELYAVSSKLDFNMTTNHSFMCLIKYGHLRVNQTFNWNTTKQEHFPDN
Source text: Biotinylated human CD80 (hCD80-BT) is a recombinant soluble form of a membrane bound receptor molecule (CD80) which binds to CD28 to initiate T cell activation. The interaction between CD80 and CD28 has been extensively investigated (Collins et al, 2002). Biotinlyated human HLA-A2-tax is the recombinant soluble form of a membrane bound receptor molecule used as a control protein, and is not expected to interact with the compound.
The BIAcore S51™ system was used for screening the compounds of Examples 1-4 above. A series S sensor chip CM5 was docked onto the BIAcore S51™. Streptavidin was coupled to the carboxymethyl surface using standard amine coupling. The chip surface was activated with 0.2M EDC/0.05M NHS, followed by binding of streptavidin (0.25 mg/ml in 10 mM sodium acetate pH 5.0) and saturation of unoccupied sites with […].
The BIAcore S51 sensor chip has two separate sensor spots for immobilisation of proteins. hCD80-BT was immobilised on the streptavidin-coated surface of one sensor spot until a response of approximately 3000 RU was observed. A protein to control for non-specific binding of the compound was immobilised on a second sensor spot. […]
BIAcore S51™ was run at a flow rate of 30 μl/min using running buffer. […] Data were recorded automatically and were analysed using BIAcore S51 Evaluation software.

CD80-CD28 interaction = target: T2, CD80-CD28 interaction (Homo sapiens, UniProt P33681); experiment: Homogeneous time resolved fluorescence (TR-Fret) assay, cell free; format: biochemical; conditions: inhibition of the CD80-CD28 interaction; 4 hours at room temperature
T2 construct: mouse Fab fragment (fusion partner)
T2 sequence (P33681 35-242 limits assumed): T1 sequence (P33681 35-242 limits assumed)
Protocol: The compound was tested in a cell free homogenous time resolved fluorescence (HT-Fret) assay to determine their activity as an inhibitor of the CD80-CD28 interaction.
In the assay, europium and allophycocyanin (APC) are associated with CD28 and CD80 indirectly (through antibody linkers) to form a complex, which brings the europium and APC into close proximity to generate a signal. The complex comprises the following six proteins: fluorescent label 1, linker antibody 1, CD28 fusion protein, CD80 fusion protein, linker antibody 2, and fluorescent label 2. The table below describes these reagents in greater detail.
On formation of the complex, europium and APC are brought into proximity and a signal is generated.
Non-specific interaction was measured by substituting a mouse Fab fragment (C215) for the CD80 mouse Fab fragment fusion protein (1.9 μg/ml). The assay was carried out in black 384 well plates in a final volume of 30 μl. Assay buffer: 50 mM Tris-HCl, 150 mM NaCl pH7.8, containing 0.1% BSA (w/v) added just prior to use.
Compounds were added to the above reagents in a concentration series ranging between 100 μM-1.7 nM. The reaction was incubated for 4 hours at room temperature. Dual measurements were made using a Wallac Victor 1420 Multilabel Counter. […] Counts were automatically corrected for fluorescence crossover, quenching and background.

O=C(N[C@H]1CN2CCC1CC2)c1ccc(-n2[nH]c3c(nnc4c(F)ccc(F)c43)c2=O)cc1 [The compound, (R)—N-(1-Aza-bicyclo[2.2.2]oct-3-yl)-4-(6,9-difluoro-3-oxo-1,3-dihydro-pyrazolo[4,3-c]cinnolin-2-yl)-benzamide]
Kd [1]: 0.35 nM
EC50 (CD80-CD28 interaction): 0.82 nM
